Experimental data as given in US6136831A, “Pyrazole derivatives and COX inhibitors containing them” (Grelan Pharmaceutical Co., Ltd., priority 1997, dated 2000).

Tests used:
[1] = test system: rat adjuvant-induced arthritis; experiment: Inhibitory Action on Adjuvant Arthritis (1) (Assay Example 2); type: in vivo, male Fisher rats; settings: oral 5 mg/kg; for % Inhibition against Change in Relative Weight, Spleen / % Inhibition against Change in Relative Weight, Thymus: 7 times, relative weight per 100 g body weight, day 21; for % Inhibition against Reduction of Gain in Body Weight / Edema Inhibition (%) Left Hind Paw (Non-inflamed Paw) / Edema Inhibition (%) Right Hind Paw (Inflamed Paw) / Inflammation Score Inhibition (%): days 0, 3, 7, 10, 14, 17, 20; for % Inhibition against Reduction of Gain in Body Weight / Edema Inhibition (%) Left Hind Paw (Non-inflamed Paw) / Edema Inhibition (%) Right Hind Paw (Inflamed Paw): measured day 21; for Inflammation Score Inhibition (%): scored day 21
Protocol: Dry Mycobacterium butyricum killed organisms (Difco) were suspended in liquid paraffin to make the concentration 1% and the resulting suspension used as an adjuvant. The adjuvant (50 μl) was subplantarly injected to the right hind paw of male Fisher rats (5 to 6 animals per group) to raise arthritis. Each test compound was suspended in a 0.5% aqueous sodium carboxymethylcellulose (CMC-Na) solution and orally administered to the rats at a dose of 5 mg/kg on days 0, 3, 7, 10, 14, 17 and 20 (7 times in total) after the arthritis induction. On the 21st disease day the rats were measured for their body weight and the edema of their right and left hind paws. Simultaneously, systemic inflammatory states were scored. In addition, each of their spleen and thymus was taken out by excision to measure their wet weight and their relative weight per 100 g body weight was calculated.

[2] = test system: oxazolone-induced dermal delayed type hypersensitivity (IV-type allergy); experiment: Inhibitory Action on Oxazolone-Induced Dermal Delayed Type Hypersensitivity (Assay Example 8); type: in vivo, mice; settings: for edema inhibition / increase in edematized auricle thickness: 4 days, 24 hours after challenge; for increase in edematized auricle thickness: control (0.12±0.03) mm
Protocol: Sensitization was conducted by topically applying 150 μl of 1% oxazolone solution (ethanol:acetone=3:1) to mice (5 to 6 animals per group), the abdominal and pectral regions of which were shaved in advance. Four days after the sensitization, 10 μl of 0.8% oxazolone solution (in olive oil) was topically applied to the […] left auricle to raise the response. Twenty-four hours later the auricular thickness was measured using a dial-gauge (Mitsutoyo Co.). Values obtained by subtracting auricular thickness data prior to the challenge were taken as indexes of the response. […] One hour after the final administration, the challenge was conducted.

COX-1 = biological target: T1, COX-1 (Ovis aries, UniProt P05979); experiment: Inhibitory Activity on COX-1 (Assay Example 1); type: biochemical; settings: Table 1; read-out: COX Inhibiting Activity IC50, COX-1
T1 construct: purchased Cayman Chemical Co
T1 sequence (P05979 25-600): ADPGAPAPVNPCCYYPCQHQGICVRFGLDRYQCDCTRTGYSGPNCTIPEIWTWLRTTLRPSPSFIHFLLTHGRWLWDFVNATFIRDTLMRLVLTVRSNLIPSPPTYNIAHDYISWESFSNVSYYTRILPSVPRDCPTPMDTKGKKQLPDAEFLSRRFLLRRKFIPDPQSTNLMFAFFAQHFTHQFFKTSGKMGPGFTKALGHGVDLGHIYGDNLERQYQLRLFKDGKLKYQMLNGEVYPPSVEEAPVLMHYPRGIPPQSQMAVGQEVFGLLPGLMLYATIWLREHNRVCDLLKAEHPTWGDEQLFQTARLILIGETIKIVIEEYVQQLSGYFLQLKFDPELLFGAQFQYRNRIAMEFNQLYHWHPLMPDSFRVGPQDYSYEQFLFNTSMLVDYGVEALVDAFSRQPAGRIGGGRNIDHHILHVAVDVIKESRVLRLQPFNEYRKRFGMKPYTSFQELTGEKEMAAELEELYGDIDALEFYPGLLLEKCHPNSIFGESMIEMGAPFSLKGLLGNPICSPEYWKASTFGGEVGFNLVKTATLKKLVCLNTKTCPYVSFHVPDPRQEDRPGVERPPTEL

COX-2 = biological target: T2, COX-2 (Ovis aries, UniProt P79208); experiment: Inhibitory Activity on COX-2 (Assay Example 1); type: biochemical; settings: Table 1; for IC50: read-out: COX Inhibiting Activity IC50, COX-2
T2 construct: purchased Cayman Chemical Co
T2 sequence (P79208 17-603): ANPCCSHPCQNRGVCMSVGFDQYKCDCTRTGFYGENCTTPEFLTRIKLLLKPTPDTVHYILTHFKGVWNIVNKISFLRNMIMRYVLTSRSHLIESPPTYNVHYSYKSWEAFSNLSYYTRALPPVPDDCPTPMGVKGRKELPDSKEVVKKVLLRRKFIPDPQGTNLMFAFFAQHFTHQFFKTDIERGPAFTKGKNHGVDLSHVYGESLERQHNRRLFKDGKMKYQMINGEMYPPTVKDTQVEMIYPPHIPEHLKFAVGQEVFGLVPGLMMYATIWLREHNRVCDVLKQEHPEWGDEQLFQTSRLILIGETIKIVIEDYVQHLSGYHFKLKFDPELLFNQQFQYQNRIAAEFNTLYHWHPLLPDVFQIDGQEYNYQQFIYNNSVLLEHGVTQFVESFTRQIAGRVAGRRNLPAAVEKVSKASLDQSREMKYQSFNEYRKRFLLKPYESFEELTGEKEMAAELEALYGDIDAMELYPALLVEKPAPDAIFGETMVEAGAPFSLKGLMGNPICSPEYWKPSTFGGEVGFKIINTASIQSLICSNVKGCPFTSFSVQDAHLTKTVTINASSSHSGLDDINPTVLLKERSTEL

[3] = test system: Arthus reaction (III-type allergy); experiment: Inhibitory Action on Arthus Reaction (Assay Example 7); settings: for increase in edematized left hind paw volume / edema inhibition: one hour prior to ovalbumin; for increase in edematized left hind paw volume: 2 hours, control (0.74±0.06) ml; for edema inhibition: significant, not more than 1% error level
Protocol: Rat anti-ovalbumin serum was prepared by the method given below. One mg of ovalbumin was dissolved in 1 ml of physiological saline and divided to two aliquots. The ovalbumin solution was intramuscularly administered to the femoral portion of male SD rats. Simultaneously, 0.5 ml of 0.05% Mycobacterium butyricum suspension as a Freund's complete adjuvant was intraperitoneally administered to the rats. Three days later, the same treatments were repeated. On the 12th day after the initial sensitization,antisera were collected.
Two hours later, the left hind paw volume was measured using a plethysmometer and the increases in paw volume were determined by comparing with those prior to the Arthus reaction induction. […] Each compound was suspended in a 0.5% aqueous CMC-Na solution and orally administered one hour prior to the ovalbumin administration. Control groups received only a 0.5% aqueous CMC-Na solution. The test of significance was conducted by Dunnett's multiple range test.

[4] = test system: adjuvant arthritis in rats; experiment: Inhibitory Action on Adjuvant Arthritis (2) (Assay Example 6); type: in vivo, male F344/Du (Fisher) rats; settings: oral 1 mg/5 ml/kg daily, 17 days
Protocol: A 1% dry Mycobacterium tuberculosis H37 RA killed organism suspension in liquid paraffin was employed as an adjuvant. The adjuvant suspension (50 μl) was subplantarly administered to the right hind paw of male F344/Du (Fisher) rats (5 to 6 animals per group) to raise arthritis. […] The next day after the final administration, the rats were measured for their body weight and the edema of their right and left hind paws. Simultaneously, systemic inflammatory states were scored. In addition, each of their spleen and thymus was taken out by excision to measure their wet weight and their relative weight per 100 g body weight was determined.

[5] = test system: acetic acid writhing in male ddY mice; experiment: Analgesic Action in Acetic Acid Writhing (Assay Example 3); type: in vivo
Protocol: A 0.7% acetic acid solution was intraperitoneally administered to male ddY mice at a dose of 10 ml/kg body weight. The frequency of writhing manifested was counted as an index of pains for a period of 10 minutes starting from the 10th minute after the administration. Ten or thirty minutes prior to the acetic acid administration, each test compound was orally given.

IC50 (COX-1) | COX-1/COX-2 (ratio of IC50 values) (COX-2) | IC50 (COX-2) | Structure (SMILES) | % Inhibition against Change in Relative Weight, Spleen [1] | % Inhibition against Change in Relative Weight, Thymus [1] | % Inhibition against Reduction of Gain in Body Weight [1] | Edema Inhibition (%) Left Hind Paw (Non-inflamed Paw) [1] | Edema Inhibition (%) Right Hind Paw (Inflamed Paw) [1] | Inflammation Score Inhibition (%) [1] | further results
> 100 µM | > 23.3 | 4.3 µM | CS(=O)(=O)c1ccc(-n2nc(C(F)(F)F)cc2-c2nc3c(F)cccc3s2)cc1 [Example 6, 4-Fluoro-2-[1-(4-methylsulfonylphenyl)-3-trifluoromethyl-1H-pyrazol-5-yl]benzothiazole] | 42.6% | 130.3% | 104.6% | 105% | 84% | 97% | edema inhibition ([2]; 30 mg/kg oral daily): 48%; increase in edematized auricle thickness ([2]; 30 mg/kg oral daily): 0.06±0.01 mm; action on oxazolone-induced delayed type hypersensitivity, in words ([2]; index test for immunoregulating activity, IV-type allergy): controlling actions; increase in edematized left hind paw volume ([3]; 50 mg/kg oral): 0.54 ± 0.04 mL; edema inhibition ([3]; 50 mg/kg oral): 27%; action on Arthus reaction, in words ([3]; index test for immunoregulating activity, III-type allergy): controlling actions
– | – | – | Cc1ccc(-c2cc(C(F)(F)F)nn2-c2ccc(S(N)(=O)=O)cc2)cc1 [YM-177, 4-[5-(4-methylphenyl)-3-trifluoromethyl-1H-pyrazol-1-yl]benzenesulfonamide, reference compound] | – | – | 25.5% | 65% | 37% | 44% | % Inhibition against Reduction of Gain in Body Weight ([4]; measured next day): 21%; Edema Inhibition (%) Left Hind Paw (Non-inflamed Paw) ([4]; measured next day): 60%; Edema Inhibition (%) Right Hind Paw (Inflamed Paw) ([4]; measured next day): 41%; Inflammation Score Inhibition (%) ([4]; scored next day): 49%; % Inhibition of Writhing Response ([5]; po, 30 mg/kg): 17%
47 µM | 142 | 0.33 µM | NS(=O)(=O)c1ccc(-n2nc(C(F)(F)F)cc2-c2nc3ccc(F)cc3s2)cc1 [Example 13, 4-[5-(6-Fluorobenzothiazol-2-yl)-3-trifluoromethyl-1H-pyrazol-1-yl]benzenesulfonamide] | -10.5% | 71.3% | 48.6% | 76% | 71% | 78% | –
– | – | – | CS(=O)(=O)c1ccc(-n2nc(C(F)(F)F)cc2-c2ccc(F)cc2)cc1 [SC-58125, 5-(4-fluorophenyl)-1-(4-methylsulfonylphenyl)-3-trifluoromethyl-1H-pyrazole, reference compound] | – | – | 96.9% | 95% | 76% | 96% | % Inhibition of Writhing Response ([5]; 30 mg/kg oral, Administration Point 1: 10 minutes prior to acetic acid): 22%
– | – | – | C[C@]12C=CC(=O)C=C1CC[C@@H]1[C@@H]2[C@@H](O)C[C@@]2(C)[C@H]1CC[C@]2(O)C(=O)CO [prednisolone, reference compound] | – | – | – | – | – | – | edema inhibition ([2]; 10 mg/kg oral daily): 70%; increase in edematized auricle thickness ([2]; 10 mg/kg oral daily): 0.04±0.01 mm; increase in edematized left hind paw volume ([3]; 10 mg/kg oral): 0.51 ± 0.02 mL; edema inhibition ([3]; 10 mg/kg oral): 31%
> 100 µM | > 263 | 0.38 µM | CS(=O)(=O)c1ccc(-n2nc(C(F)(F)F)cc2-c2nc3ccc(F)cc3s2)cc1 [Example 2, 6-Fluoro-2-[1-(4-methylsulfonylphenyl)-3-trifluoromethyl-1H-pyrazol-5-yl]benzothiazole] | 2.5% | 56.7% | 75.9% | 91% | 94% | 97% | % Inhibition of Writhing Response ([5]; 10 mg/kg oral, Administration Point 1: 10 minutes prior to acetic acid): 49%; % Inhibition of Writhing Response ([5]; 10 mg/kg oral, Administration Point 2: 30 minutes prior to acetic acid): 57%
– | – | – | COc1ccc2c(c1)c(CC(=O)O)c(C)n2C(=O)c1ccc(Cl)cc1 [Indomethacin, reference compound] | – | – | 19.8% | 75% | 43% | 51% | % Inhibition of Writhing Response ([5]; po, 3 mg/kg): 28%
